# In US4085224A, “Method of increasing feed utilization” (Eli Lilly and Company, priority 1976, dated 1978):
# Tested on: rumen fluid
# Assay: in vitro rumen fluid volatile fatty acid production
# Set-up: species or system steer
# Details: 1 ppm in rumen fluid, 16 hours at 38° C.
# Source text: As discussed hereinabove, efficiency of carbohydrate utilization in ruminants is increased by treatments which stimulate the amimal's rumen flora to produce propionate compounds rather than acetate or butyrate compounds. The efficiency of feed use can be monitored by observing the production and concentration of propionate compounds in the rumen, using the following methods:
# Remen fluid is obtained from a steer with a surgically-installed fistula opening into the rumen. The steer is maintained on a high-grain ration. A sample of rumen fluid is strained through four layers of cheesecloth, and the filtrate is collected. The particulate matter retained by the cheesecloth is resuspended in enough physiological buffer to return it to the original volume of the rumen fluid, and this suspension is strained again. The buffer used has the following composition:
# The two filtrates are combined and allowed to stand until particulate matter separates to the top. The clear layer is separated, diluted with the same buffer (1:1) and then adjusted to between pH 6.8 to 7.0.
# The diluted rumen fluid (10 ml) is placed in a 25-ml flask with 40 mg of the above-described feed, an additional 1 mg of soybean protein, and the compound to be tested. Four replicate flasks are used per treatment. Two sets of four control flasks each are also employed. A zero-time control and an incubated 16-hour control are used. All test flasks are incubated for 16 hours at 38° C. […] The samples are allowed to settle, and the supernatants are analyzed by gas chromatography for propionate, acetate, and butyrate compounds.
structure (smiles),measurement,value
CCC(C(=O)O)C1OC(C(C)C(O)C(C)C(=O)C(CC)C2OC3(C=CC(O)C4(CCC(C)(C5CCC(O)(CC)C(C)O5)O4)O3)C(C)CC2C)C(C)CC1C (stereo not shown) [A-28086 factor A],"Ratio of Treated to Control, Molar % acetate",0.94
same,"Ratio of Treated to Control, Molar % butyrate",0.87
same,"Ratio of Treated to Control, Molar % propionate",1.34
same,"Ratio of Treated to Control, Total VFA mM/l",1.26
